Test results published in patent publication US7652006B2, “Substituted 1(2H)-phthalazinones and pharmaceutical compositions thereof” (Euro-Celtique S.A., priority 1998, dated 2010).
Structures can show the parent of a compound that is named as a salt. Where two headings read alike, the source gives them in different places.

Tests used:
AMPA receptors = assay: electrophysiological assay, AMPA receptors expressed in oocyte; type: cell-based, rat; settings: inhibiting or modulating AMPA receptors expressed in oocyte, read-out: AMPA IC50
Source text: The compounds of the present invention may be assessed by electrophysiological assays in Xenopus oocytes expressing rat whole brain poly(A)^+ RNA (see Keana et. al. J. Med. Chem. 38: 4367-4379 (1995)) or in cultured rat cortical neurons (see Woodward et. al. Mol. Pharmacol. 47: 568-581 (1995)) for AMPA receptor activity. Compounds which are useful for treating or preventing the adverse consequences of stroke, hypoglycemia, neurodegenerative disorders, anxiety, epilepsy or psychosis, or which induce analgesia, will inhibit the currents across the membranes of the oocyte expressing AMPA receptors. However, if the compound potentiates currents across the oocyte membrane, then the compound is expected to be useful in enhancing cognition or treating schizophrenia or neurodegenerative disease such as Parkinson's Disease.
The potency of antagonism or potentiation for these compounds were determined by electrophysiological assay. Potencies of selective compounds described above in inhibiting or modulating AMPA receptors expressed in oocyte and their anticonvulsant activity against maximal electroshock induced convulsion are shown in Table 1.

[1] = system: maximal electroshock induced convulsion; assay: Maximal Electroshock-induced Seizure (MES) test; type: in vivo, mice; settings: iv, anticonvulsant activity against maximal electroshock induced convulsion; for ED50: Mus musculus
Source text: The compounds of the present invention may be tested for […] anticonvulsant activity after iv or ip injection using a number of anticonvulsant tests in mice (audiogenic seizure model in DBA-2 mice. pentylenetetrazol-induced seizures in mice, maximum electroshock seizure test (MES)). The anticonvulsant activity of the AMPA antagonists may be evaluated in the Maximal Electroshock-induced Seizure (MES) test. Seizures are induced by application of current (50 mA, 60 pulses/sec, […], 1 sec duration, d.c.) through saline-coated corneal electrodes using a Ugo Basile ECT device (Model 7801). […] A tonic seizure is defined as a hindlimb extension in excess of 90 degrees from the plane of the body. Results are treated in a quintal manner. The potency of antagonism or potentiation for these compounds were determined by electrophysiological assay. Potencies of selective compounds described above in inhibiting or modulating AMPA receptors expressed in oocyte and their anticonvulsant activity against maximal electroshock induced convulsion are shown in Table 1.

Row | Structure (SMILES) | IC50 (AMPA receptors) [µM] | melting point [°C] | ED50 [1] [mg/kg] | further results
1 | CN(C)CCn1c(=O)nc(-c2ccc3c(c2)OCO3)c2cc3c(cc21)OCO3 [1-(2-(dimethylamino)ethyl)-6,7-methylenedioxy-4-(3,4-methylenedioxyphenyl)quinazolin-2-(1H)-one hydrochloride] | – | – | – | IC50 (AMPA receptors; hydrochloride): 1.1 µM; MES ED50 ([1]; hydrochloride): 8.1 mg/kg
2 | CC(C)n1c(=O)nc(-c2ccc3c(c2)OCCO3)c2cc3c(cc21)OCO3 [1-Isopropyl-6,7-methylenedioxy-4-(3,4-ethylenedioxyphenyl)-quinazolin-2(1H)-one] | 1.8 | 214 to 217 | – | –
3 | c1nc(-c2ccc3c(c2)OCO3)c2cc3c(cc2n1)OCO3 [6,7-Methylenedioxy-4-(3,4-methylenedioxyphenyl)quinazoline] | 11 | 180 to 185 | – | –
4 | CC(C)n1c(=O)nc(-c2ccc3c(c2)OCO3)c2cc3oc(=O)n(C)c3cc21 [1-Isopropyl-4-(3,4-methylenedioxyphenyl)-8-methyl-7-oxo-oxazol[5,4-g]quinazolin-2(1H)-one] | 2 | – | 1.5 | –
5 | CC(C)n1c(=O)nc(-c2ccc3ocnc3c2)c2cc3c(cc21)OCO3 [1-Isopropyl-6,7-methylenedioxy-4-(5-benzoxazole)quinazolin-2(1H)-one] | 13 | 241 to 243 | – | –
6 | CC(C)n1c(=O)nc(-c2ccc3ccccc3c2)c2cc3c(cc21)OCO3 [1-Isopropyl-6,7-methylenedioxy-4-(2-naphthyl)quinazolin-2(1H)-one] | 2 | 213 to 215 | 4.5 | –
7 | CN(C)CCn1nc(-c2ccc3c(c2)OCO3)c2cc3c(cc2c1=O)OCO3 [2-[2-(Dimethylamino)ethyl]-4-(3,4-methylenedioxyphenyl)-6,7-methylenedioxy-1(2H)-phthalazinone] | 5 | – | 3.5 | –
8 | CC(C)n1c(=O)nc(-c2cnc3ccccc3c2)c2cc3c(cc21)OCO3 [1-Isopropyl-6,7-methylenedioxy-4-(3-quinolyl)quinazolin-2(1H)-one] | 8 | 279 to 281 | – | –
9 | CCn1c(=O)nc(-c2ccc3c(c2)OCCO3)c2cc3c(cc21)OCO3 [1-Ethyl-6,7-methylenedioxy-4-(3,4-ethylenedioxyphenyl)quinazolin-2(1H)-one] | 1.1 | – | 3 | –
10 | CN(C)CCOc1nc(-c2ccc3c(c2)OCO3)c2cc3c(cc2n1)OCO3.Cl [6,7-methylenedioxy-4-(3,4-methylenedioxyphenyl)-2-(2-(dimethylamino)ethoxy)quinazoline hydrochloride] | – | – | 10 | IC50 (AMPA receptors; hydrochloride): 10 µM
11 | Cn1ccnc1SCc1nc(-c2ccc3c(c2)OCO3)c2cc3c(cc2n1)OCO3 [2-[(1-Methyl-2-imidazolyl)thio]methyl-6,7-methylenedioxy-4-(3,4-methylenedioxy-phenyl)quinazoline] | 7 | 155 to 160 | – | –
12 | c1cn(CCc2nc(-c3ccc4c(c3)OCO4)c3cc4c(cc3n2)OCO4)cn1 [2-(Imidazol-1-yl)ethyl-6,7-methylenedioxy-4-(3,4-methylenedioxyphenyl)quinazoline] | 4 | 160 to 163 | 3.1 | –
13 | CC(C)n1c(=O)nc(-c2ccc(N(C)C)cc2)c2cc3c(cc21)OCO3 | – | 240 to 245 | – | –
14 | CC(C)n1c(=O)nc(-c2cc3c(cc2Cl)OCO3)c2cc3c(cc21)OCO3 [1-Isopropyl-6,7-methylenedioxy-4-(2-chloro-4,5-methylenedioxyphenyl)quinazolin-2(1H)-one] | 5.5 | 147 to 150 | 6.2 | –

More lines, main results first:

Row | IC50 (AMPA receptors) [µM] | melting point [°C] | Structure (SMILES) | ED50 [1] [mg/kg] | further results
15 | 2 | 243 to 245 | CC(C)n1c(=O)nc(-c2ccc3c(c2)OC(F)(F)O3)c2cc3c(cc21)OCO3 [1-Isopropyl-6,7-methylenedioxy-4-(3,4-difluoromethylenedioxyphenyl)quinazolin-2(1H)-one] | – | –
16 | 8 | – | [O-][n+]1c(CCl)nc2cc3c(cc2c1-c1ccc2c(c1)OCO2)OCO3 [2-Chloromethyl-6,7-methylenedioxy-4-(3,4-methylenedioxy-phenyl)quinazoline 3-oxide] | 3.1 | –
17 | 2.5 | – | CN(C)CCOc1nc(-c2ccc3c(c2)OCO3)c2cc3c(cc2n1)OCO3 [6,7-Methylenedioxy-4-(3,4-methylenedioxyphenyl)-2-(2-(dimethylamino)ethoxy)-quinazoline] | 4 | –
18 | 0.2 | 220 to 225 | CN(C)CCn1c(=O)nc(-c2ccc3c(c2)OCCO3)c2cc3c(cc21)OCO3 [1-(2-(dimethylamino)ethyl)-6,7-methylenedioxy-4-(3,4-ethylenedioxyphenyl)-quinazolin-2(1H)-one] | 1 | –
19 | 12 | 162 to 167 | NCCOc1nc(-c2ccc3c(c2)OCO3)c2cc3c(cc2n1)OCO3 [2-(2-Aminoethoxy)-6,7-methylenedioxy-4-(3,4-methylenedioxyphenyl)quinazoline] | – | –
20 | 5 | 73 to 75 | CC(C)n1c(=O)nc(-c2ccc3c(c2)CCC3)c2cc3c(cc21)OCO3 [1-Isopropyl-6,7-methylenedioxy-4-(5-indanyl)quinazolin-2(1H)-one] | – | –
21 | 10 | – | CC(C)n1c(=O)nc(-c2ccc3c(c2)CCO3)c2cc3c(cc21)OCO3 [4-(2,3-Dihydrobenzofuran-5-yl)-1-isopropyl-6,7-methylenedioxyquinazolin-2(1H)-one] | 3.3 | –
22 | 10 | – | O=c1c2cc3c(cc2c(-c2ccc4c(c2)OCO4)nn1CCN1CCCC1)OCO3 [2-[2-(1-Pyrrolidinyl)ethyl]-4-(3,4-methylenedioxyphenyl)-6,7-methylenedioxy-1(2H)-phthalazinone] | 3.8 | –
23 | 2.8 | – | CC(C)n1c(=O)nc(-c2ccc3c(c2)OCO3)c2cc3c(cc21)OCO3 [1-Isopropyl-6,7-methylenedioxy-4-(3,4-methylenedioxyphenyl)quinazolin-2(1H)-one] | 3 | –
24 | 5 | 110 to 145 | CCCn1c(=O)oc2cc3c(-c4ccc5c(c4)OCO5)nc(=O)n(C(C)C)c3cc21 [1-Isopropyl-4-(3,4-methylenedioxyphenyl)-8-propyl-7-oxo-oxazol[5,4-g]quinazolin-2(1H)-one] | – | –
25 | 7 | – | [O-][n+]1cnc2cc3c(cc2c1-c1ccc2c(c1)OCO2)OCO3 [6,7-Methylenedioxy-4-(3,4-methylenedioxyphenyl)quinazoline 3-oxide] | 2.5 | –
26 | 5 | – | [O-][n+]1c(Cn2ccnc2)nc2cc3c(cc2c1-c1ccc2c(c1)OCO2)OCO3 [2-(Imidazol-1-yl)methyl-6,7-methylenedioxy-4-(3,4-methylenedioxyphenyl)quinazoline-3-oxide] | 5 | –
27 | 5 | – | CCn1c(=O)nc(-c2ccc3c(c2)OCO3)c2cc3c(cc21)OCO3 [1-Ethyl-6,7-methylenedioxy-4-(3,4-methylenedioxyphenyl)quinazolin-2(1H)-one] | 3.4 | –
28 | 8 | – | CCOCCn1c(=O)nc(-c2ccc3c(c2)OCO3)c2cc3c(cc21)OCO3 [1-[(2-Ethoxy)ethyl]-6,7-methylenedioxy-4-(3,4-methylenedioxyphenyl)quinazoline-2-one] | 10 | –
29 | 9 | 195 to 198 | c1ncn(Cc2nc(-c3ccc4c(c3)OCO4)c3cc4c(cc3n2)OCO4)n1 [6,7-Methylenedioxy-2-(1,2,4-triazol-1-yl)methyl-4-(3,4-methylenedioxyphenyl)quinazoline] | – | –
30 | 7 | 235 to 240 | C#CCn1c(=O)nc(-c2ccc3c(c2)OCO3)c2cc3c(cc21)OCO3 [1-(2-Propynyl)-6,7-methylenedioxy-4-(3,4-methylenedioxyphenyl)quinazolin-2(1H)-one] | – | –
31 | 1 | 175 to 182 | CN(C)CCn1c(=O)nc(-c2ccc3c(c2)OCO3)c2cc3c(cc21)OCO3 [1-(2-(dimethylamino)ethyl)-6,7-methylenedioxy-4-(3,4-methylenedioxyphenyl)-quinazolin-2(1H)-one] | – | MES ED50 [1]: 1.5 mg/kg
32 | 2 | – | CCN(CC)CCn1c(=O)nc(-c2ccc3c(c2)OCO3)c2cc3c(cc21)OCO3 [1-[2-(diethylamino)ethyl]4-(3,4-methylenedioxyphenyl)-6,7-methylenedioxyquinazolin-2(1H)-one] | 5.2 | –
33 | – | 172 to 175 | CC(CN(C)C)Oc1nc(-c2ccc3c(c2)OCO3)c2cc3c(cc2n1)OCO3 (stereo not drawn) | – | –
